The values that follow are results of earlier work, collected in the CATMoS acute toxicity set (Mansouri et al. 2021).

Several values for one entry are separate records, joined by “and”; a condition that tells them apart may be missing. Identical values can stand only once.

A short description of this series: rat acute oral toxicity. Conditions: in vivo.
With `Oc1nc(O)nc(O)n1`, the LD50 is 7700 mg/kg.
For `CC(Br)(CCl)CBr` (centres undefined), the LD50 is 780 mg/kg.
Take `C=C(CCC)C1C(C=C(C)C)C1(C)C` (centres undefined): the LD50 is 2600 mg/kg.
In the case of `CNC(=O)ON=C1CS(=O)CCS1` (centres undefined), the LD50 was 12.3 mg/kg.
With `CCC(C)c1cc([N+](=O)[O-])cc([N+](=O)[O-])c1OC(=O)OC(C)C` (centres undefined), the LD50 is 59 mg/kg.
Take `C=CCc1c(O)c(CN2CCN(CCO)CC2)cc2c(C)cc(=O)oc12`: the LD50 is 3160 mg/kg.
For the compound `CCCCCCCCS(=O)CCCCl` (centres undefined), the LD50 was 5660 mg/kg.
On to `C=CC(=O)OCCOCC`, for which the LD50 was 1070 mg/kg.
Take `N#CCCCCCN`: the LD50 is 820 mg/kg.
On to `CCN[C@H]1C[C@H](C)S(=O)(=O)c2sc(S(N)(=O)=O)cc21`, for which the LD50 was 1930 mg/kg.
For the compound `CCCCCCCCCC(=O)NP(=O)(OC)SC` (centres undefined), the LD50 was 125 mg/kg.
`COc1ccc(C=CC(=O)O)cc1O`: the LD50 is 7900 mg/kg.
Consider `CN(C)c1ccc(N=Nc2ccc(S(=O)(=O)O)cc2)cc1`, for which the LD50 was 60 mg/kg.
In the case of `Cc1cc(Cl)ccc1OCC(=O)Nc1ccccc1`, the LD50 is 4500 mg/kg.
For `COc1cc(S(C)=O)ccc1-c1nc2ccncc2[nH]1` (centres undefined), the LD50 is 132 mg/kg.
`CCCC(C)C(=O)O` (centres undefined): the LD50 was 2040 mg/kg.
With `CC(C(=O)O)c1ccc2c(c1)OCc1cc(Cl)ccc1C2=O` (centres undefined), the LD50 is 12 mg/kg.
With `COc1cc(N)c(Cl)cc1C(=O)NC1CCN(CCCOc2ccc(F)cc2)CC1OC` (centres undefined), the LD50 was 4170 mg/kg.
In the case of `CC(c1ccccc1)N(C)C` (centres undefined), the LD50 is 420 mg/kg.
As for `COc1cc(C(Cl)(Cl)Cl)cc(Cl)n1`, the LD50 was 1500 mg/kg.
Turning to `O=[N+]([O-])c1cc(I)c(O)c(I)c1`, the median lethal dose (LD50) was 170 mg/kg.
In the case of `FC(F)(F)c1nc2c(Cl)cc(Cl)cc2[nH]1`, the LD50 is 3.29 mg/kg.
With `O=C(O)COc1ccccc1`, the LD50 was 1500 mg/kg.
On to `C1CN(CCOCCN2CCOCC2)CCO1`, for which the LD50 was 2020 mg/kg.
As to `CC(O)c1ccccc1` (centres undefined), the LD50 is 400 mg/kg.
As to `CN1CCN(CC(=O)N/N=C/c2ccc([N+](=O)[O-])o2)CC1`, the LD50 is 990 mg/kg and 960 mg/kg and 833 mg/kg.
`Cn1c2c(c3ccc(N)cc31)CCCC2`: the LD50 is 705 mg/kg.
In the case of `O=c1[nH]c2ccccc2n1C1CCN(CCCC(c2ccc(F)cc2)c2ccc(F)cc2)CC1`, the median lethal dose (LD50) was 1100 mg/kg.
As to `CC(C(=O)OCCOCCO)c1ccc2c(c1)C(=O)Cc1ccccc1O2` (centres undefined), the LD50 was 260 mg/kg.
In the case of `CCOC(=O)CSP(=S)(OCC)OCC`, the LD50 is 1100 mg/kg.
In the case of `O=C1CN2CCOC2(c2ccccc2F)c2cc(Br)ccc2N1` (centres undefined), the LD50 is 2860 mg/kg.
Regarding `CC(C(=O)O)c1cccc2c(-c3ccccc3)coc12` (centres undefined), the LD50 is 950 mg/kg.
For the compound `Cc1ccc(C)c(C)c1C`, the LD50 is 6410 mg/kg.
`CC(O)COS(C)(=O)=S` (centres undefined): the LD50 is 794 mg/kg.
As to `CCNc1nc(=O)nc(NC(C)(C)C(=O)O)[nH]1`, the LD50 was 789 mg/kg.
`O=C(O)c1c(Cl)ccc(Cl)c1Cl`: the LD50 was 1640 mg/kg.
Take `CCOc1ccc(N2CC(C(=O)N3CCNCC3)CC2=O)cc1` (centres undefined): the LD50 was 550 mg/kg.
With `c1ccc(CCc2ccccc2)cc1`, the LD50 was 4520 mg/kg.
Regarding `CC(C)N(Sc1nc2ccccc2s1)C(C)C`, the LD50 is 5200 mg/kg.
Turning to `CSc1ccccc1`, the LD50 is 891 mg/kg.
With `Cc1c[nH]c2ccccc12`, the LD50 is 3450 mg/kg.
In the case of `CC(C)(C)c1ccc(CCC=O)cc1`, the LD50 was 2700 mg/kg.
Regarding `CN1CCCCC1CCN1c2ccccc2Sc2ccc(S(C)=O)cc21` (centres undefined), the LD50 is 644 mg/kg.
For `CNC(=O)ON=C1[C@@H](Cl)[C@@H]2C[C@H](C#N)[C@H]1C2` (relative stereo), the LD50 is 25 mg/kg.
For the compound `CN(C)CC1CCCCC1`, the median lethal dose (LD50) is 1230 mg/kg.
As for `Cc1ccn(CO)n1`, the LD50 is 1650 mg/kg.
Consider `NC(=O)N/N=C/c1ccc([N+](=O)[O-])o1`, for which the 50% lethal dose (LD50) was 590 mg/kg.
Regarding `S=c1[nH]c2ccccc2[nH]1`, the LD50 is 300 mg/kg.
As for `C/N=C/Nc1ccc(Cl)cc1C`, the LD50 was 264 mg/kg.
With `O=C1c2ccccc2-c2ccc3c4c(ccc1c24)-c1c(Br)ccc(Br)c1C3=O`, the LD50 was 3570 mg/kg.
`C=CCN(C1=NCCN1)c1c(Cl)cccc1Cl`: the LD50 is 500 mg/kg and 233 mg/kg.
For the compound `CCC(C)OCCO` (centres undefined), the LD50 was 790 mg/kg.
In the case of `COC(=O)C1CCC(C(=O)OC)CC1` (centres undefined), the LD50 was 2810 mg/kg.
On to `CC(OC(C)c1ccccc1)c1ccccc1` (centres undefined), for which the LD50 was 9800 mg/kg.
In the case of `CC1(NC(N)=O)CCCC1`, the LD50 was 1200 mg/kg.
Take `O=C(Nc1ccc(Br)cc1)c1cc(Br)ccc1O`: the LD50 was 410 mg/kg.
On to `CCC1CCCC(CC)C1N` (centres undefined), for which the LD50 was 157 mg/kg.
`CCOC(=O)C1CC(=O)C(=C(O)C2CC2)C(=O)C1` (centres undefined): the LD50 was 4460 mg/kg.
With `NCC(O)c1ccc(O)cc1` (centres undefined), the LD50 is 1240 mg/kg and 1090 mg/kg.
On to `CCCCCOc1c(Br)cc(Br)cc1COCCN(CC)CC`, for which the LD50 is 350 mg/kg.
For `COc1ccc(-c2oc3ccc(C(=O)O)cc3c(=O)c2OC(C)C)cc1`, the LD50 was 1480 mg/kg.
`CN1C2CCC1CC(OC(=O)C(C)(CO)c1ccccc1)C2` (centres undefined): the LD50 was 1100 mg/kg.
In the case of `CN(C)CCC=C(c1ccccc1)c1ccc(C(F)(F)F)cc1`, the LD50 was 1000 mg/kg.
With `CCO[Si](C)(CCCCN)OCC`, the LD50 was 6500 mg/kg.
